Paper PMC12523843, “Kuwanon A Targeted YWHAB in Hepatocellular Carcinoma Cells to Inhibit the Raf/MEK/ERK Signaling Pathway” (Cells, 2025)
Like-named read-outs stand apart in the source and are kept apart here.

Experiments:
YWHAB dimer = biological target: T1, YWHAB dimer (Homo sapiens, UniProt P31946); experiment: Co-immunoprecipitation of MYC-YWHAB and FLAG-YWHAB in HEK 293T; assay type: cell-based; parameters: host or cells: HEK 293T; details: 25 μM and 30 μM, HEK 293T overexpressing MYC-YWHAB and FLAG-YWHAB
T1 sequence (P31946 1-246): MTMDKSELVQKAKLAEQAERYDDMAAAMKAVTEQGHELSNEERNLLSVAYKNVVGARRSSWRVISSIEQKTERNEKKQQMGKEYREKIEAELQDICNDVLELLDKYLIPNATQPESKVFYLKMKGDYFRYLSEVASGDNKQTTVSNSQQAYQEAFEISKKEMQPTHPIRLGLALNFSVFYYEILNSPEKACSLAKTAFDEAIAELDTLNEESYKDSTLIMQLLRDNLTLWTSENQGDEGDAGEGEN

[1] = test system: phosphorylation of MEK1/2 and ERK1/2; experiment: Western blot of MAPK pathway; assay type: cell-based, human
Experimental: Cells were harvested using a cell scrape and washed three times with PBS buffer, then lysed on ice in RIPA lysis buffer (Beyotime, Shanghai, China). Protein concentration was determined using a BCA protein assay kit (Beyotime, Shanghai, China). Subsequently, 60 µg of protein was mixed with 5× loading buffer and heated in a 100 °C water bath for 15 min. The samples were subjected to SDS-PAGE electrophoresis, followed by transfer onto a PVDF membrane (Millipore, Darmstadt, Germany). The membrane was blocked with 5% BSA for 2 h at room temperature and incubated sequentially with primary and HRP-conjugated secondary antibodies. Finally, signal detection was performed using an ECL detection system (Clinx, Shanghai, China).

YWHAB = biological target: T2, YWHAB (Homo sapiens, UniProt P31946); experiment: Cell thermal shift assay (CETSA); assay type: binding; parameters: endogenous in cells; host or cells: MHCC97 H and SMMC 7721; details: high concentration of KA, 3 h, MHCC97 H and SMMC 7721, 44–65 °C
T2 sequence (P31946 1-246): T1 sequence (P31946 1-246)
Experimental: The cells were treated with a high concentration (3–4 times the IC50) of the drug for 2–4 h before being digested with trypsin. Then the cells were washed 1–2 times with PBS. Resuspend the cells in […] of PBS. Subsequently, divided them into eight portions, each containing 50 µL. Set the appropriate temperature range and gradient. In our research, the range of 44–65 °C was used. Each portion of cells was treated at the specified temperature for 3–5 min. Then, the cells were repeatedly frozen and thawed using liquid nitrogen. After high-speed centrifugation (20,000× g, 20 min), we took the top layer of supernatant. After adding an appropriate amount of loading buffer, we conducted the Western Blot assay. Quantitative analysis was used to determine whether the compound has enhanced the thermal stability of the target protein.

[2] = test system: HCC cells (MHCC97 H and SMMC 7721); experiment: Transwell migration (without Matrix-Gel) and invasion (with Matrix-Gel) assay; assay type: cell-based, human
Experimental: The Transwell assay measured the migration and invasion of cells by calculating the number of cells that passed through the material. Prior to the Transwell migration assay, cells were serum-starved in FBS-free culture medium for 24 h. The cells were then detached using trypsin, washed 1–2 times with PBS, and resuspended in DMEM. Approximately 50,000–100,000 cells were seeded into the upper chamber of the Transwell insert. The lower chamber was filled with 600 μL of complete medium containing the test compound. […] After incubation, the migrated cells on the lower membrane surface were fixed with 4% paraformaldehyde (PFA) and stained with 0.1% crystal violet. Non-migrated cells remaining in the upper chamber were carefully removed with a cotton swab. Finally, the stained cells were visualized under a microscope. If matrix gel was needed, it should be added according to the instructions (Beyotime, Shanghai, China) before the cells were seeded.

MHCC97 H cells = experiment: MTT IC50 determination in MHCC97 H; assay type: cell-based, human; details: Homo sapiens, MHCC97H
Experimental: Cell viability was assessed using MTT experiments. Cells, together with KA, were seeded into 96-well plates at a density of 2000 cells per well with three replicates per condition. DMSO was used as a control. At designated time points, 20 μL of MTT (Sigma, St. Louis, MO, USA) solution was added to each well and incubated for 3 h. After removing the culture medium, 200 μL of DMSO was added to dissolve the formazan crystals. The absorbance was then measured using a microplate reader at a wavelength of 560 nm.

CC(C)=CCc1c(-c2ccc(O)c3c2OC(C)(C)C=C3)oc2cc(O)cc(O)c2c1=O [KA, Kuwanon A]
dimerization levels of YWHAB (co-immunoprecipitation) (YWHAB dimer): reduced dimerization levels of YWHAB | KA's effects on MEK1/2 and ERK1/2 phosphorylation under YWHAB overexpression ([1]; YWHAB-overexpressing HCC cells, KA 15 μM, 48 h): partly abrogated | phosphorylation levels of MEK1/2 and ERK1/2 (Western blot) ([1]; indicated concentrations 48 h, 15 μM for 24 or 48 h): significant downregulation of the phosphorylation levels of MEK1/2 and ERK1/2 | thermal stability of YWHAB (CETSA) (YWHAB): increased thermal stability of YWHAB | migration/invasion under YWHAB overexpression (wound healing and Transwell) ([2]; YWHAB-overexpressing HCC cells compared to normal tumor cells, KA 15 μM, 48 h): less effect of KA on the migration/invasion | invasive capacity of HCC cells (Transwell) ([2]; with Matrix-Gel): inhibited the invasive capacity of HCC cells | number of HCC cells migrating through the polycarbonate membrane (Transwell) ([2]; without Matrix-Gel): significant decrease in the number of HCC cells migrating | IC50 (MHCC97 H cells; MTT method, read-out: IC50 in MHCC97 H (screen)): < 20 µM | IC50 (MHCC97 H cells; MTT, gradient concentrations, 48 h, read-out: IC50 in MHCC97 H): 8.4 µM
